Consider five compounds from patent publication US12622975B2, “Peptide-conjugated prodrugs” (priority 2019, dated 2026).

≈ marks a conversion by molar mass, not a printed value. Entries after “also recorded” stand apart in the source; their conditions may differ. Like-named read-outs stand apart in the source and are kept apart here. A value given as a limit tells only on which side of the number the result lay.

Data set [1] has as its system esterase (bioH, yjfP, frsA, ybfF, yfbB, ypfH, yeiG, or yqiA) deletion mutants of E. coli. Type of data set: cell-based. The following applies: single esterase gene deletion. The method, then:
Bacteria culture and inhibitory activity assay: Single esterase (BioH, YjfP, FrsA, YbfF, YfbB, YqiA, YeiG, or and YpfH) deletion mutants were purchased from Dharmacon Horizon Discovery (Cambridge, United Kingdom). The K12 wild-type E. coli strain (MG1655) was cultured in autoclaved LB medium (25 g/L LB broth/water) in a shaker-incubator overnight to stationary growth phase, and then sub-cultured in the same medium after dilution to OD600 of 0.05. Compounds were added at different concentrations. The mixture of bacteria and compounds were placed (200 μL/well) into 96-well clear flat bottom plates. In all plates, the OD600 was measured before and after 16 hour incubation at 37° C.
(§1) Bacteria culture and inhibitory activity assay: Single esterase (bioH, frsA, ybfF, yfbB, yqiA, yeiG, or ypfH) deletion mutants, bacterial transporter (ydgR, fepA and ompF) deletion mutants and the efflux pump (acrA) deletion mutant were all purchased from Dharmacon Horizon Discovery (Cambridge, United Kingdom). The K12 wild-type E. coli strain (MG1655) was cultured in autoclaved LB medium (25 g/L LB broth/water) in a shaker-incubator overnight to stationary growth phase, and then sub-cultured in the same medium after dilution to OD600 of 0.05. Compounds were added at different concentrations. The mixture of bacteria and compounds were placed (200 μL/well) into 96-well clear flat bottom plates. In all plates, the OD600 was measured before and after a 16 hour incubation at 37° C.

Data set [2] is described as follows: Stability in human serum (LC-MS). Type of data set: in vitro ADME. The following applies: 200 μM, 37° C.; for Compounds remaining (%) 0 h / Compounds remaining (%) 2 h / Compounds remaining (%) 24 h: human serum.
For data set [3], the system named is ydgR, fepA, ompF transporter deletion mutants of E. coli. Particulars: mutants versus wild-type E. coli. As to the method: as §1
(§2) Several representative peptides conjugating CLsu (e.g., 1c, 1d, 2b and 2c) were chosen to study the effects of conjugated peptides on the uptake of the prodrugs.

In data set [4] the test system is acrA efflux pump deletion mutant of E. coli. Particulars: acrA mutant versus wild-type E. coli. As to the method:
as §1, §2

Data set [5] relates to wild type E. coli strain (K-12). Nature of the data set: Bacteria culture and inhibitory activity assay (MIC). Particulars: for Effect of addition of exogenous PLE on inhibitory efficacy: porcine liver esterase 1 U/mL; for MIC: Escherichia coli. It is filed as cell-based. As to the method:
Bacteria culture and inhibitory activity assay: Single esterase (BioH, YjfP, FrsA, YbfF, YfbB, YqiA, YeiG, or and YpfH) deletion mutants were purchased from Dharmacon Horizon Discovery (Cambridge, United Kingdom). […] Compounds were added at different concentrations.
Compounds were added at different concentrations.

For the next data set, the system named is E. coli (K-12) lysate. Briefly: Hydrolysis assay with E. coli lysate. It is filed as in vitro ADME. The following applies: for apparent first-order rate constant of hydrolysis: compound 200 μM, E. coli lysate 0.1 U/mL, pH 7.4 PBS, 37° C. The method, then: (§3) Hydrolysis assay: Wild-type E. coli strains (K12) were harvested by centrifugation and the cell pellets were lysed using a sonic device. After centrifugation, the supernatant was collected and the proteinase inhibitor was added in the E. coli lysate. The concentration of E. coli lysate was normalized by the fluorescence intensity of 5-carboxyfluorescein diacetate (CFDA). Briefly, different concentrations of CES (4 U/mL, 2 U/mL, 1 U/mL, 0.5 U/mL, 0.25 U/mL, 0.125 U/mL, 0.0625 U/mL, 0.03125 U/mL, 0.015625 U/mL and 0 U/mL) and different amount of E. coli lysates were prepared in PBS buffer. Followed by, 25 μM of CFDA was added in and incubated at room temperature for 1 hour. Then the fluorescence was tested to draw a fluorescence-concentration dependent curve for figuring out the concentration of E. coli lysates. Solutions of CLsuGG (200 μM) were prepared in pH 7.4 PBS buffer. CES and E. coli lysate (0.1 U/mL) were added and incubated with above solutions at 37° C. for 24 hours. At different time points, the solution was taken out, extracted with an equal volume of butanol, concentrated to dryness, and resuspended with butanol for HPLC analysis. HPLC was performed with Agilent 1100 Series Liquid Chromatograph equipped with an XTerra C18 reverse phase column and Variable Wavelength Detector. The hydrolyzed mixture resuspended in 1 mL of butanol was injected to HPLC mobile phase (0.1% trifluoroacetic acid, the starting ratio: 10% acetonitrile and 90% water). The system was run at a flow rate of 10 mL/min.
as §3, with “analysis.” for “analysis. HPLC was performed with Agilent 1100 Series Liquid Chromatograph equipped with an XTerra C18 reverse phase column and Variable Wavelength Detector. The hydrolyzed mixture resuspended in 1 mL of butanol was injected to HPLC mobile phase (0.1% trifluoroacetic acid, the starting ratio: 10% acetonitrile and 90% water). The system was run at a flow rate of 10 mL/min.”

A further data set relates to HS-5 cells. Briefly: Cell viability assay (MTT), HS-5. The following applies: 20 μM, 24 hours. Type of data set: cell-based, human.
For the next data set, the system named is carboxylesterase (CES). Briefly: Hydrolysis assay with exogenous carboxylesterase. Particulars: CES 0.1 U/mL. Type of data set: in vitro ADME, porcine.
Excerpt: Experimental materials and instruments. All the solvents and chemical reagents were used directly as received from the commercial sources without further purification unless otherwise stated. Carboxylesterase (CES) from porcine liver was purchased from Sigma-Aldrich (lyophilized powder, >15 units/mg solid; Unit definition: One unit will hydrolyze 1.0 μmole of ethyl butyrate to butyric acid and ethanol per min at pH 8.0 at 25). CLsuGG, CLsuG, CLsuGGG were purified with Agilent 1100 Series Liquid Chromatography system, equipped with an XTerra C18 RP column and Variable Wavelength detector.
as §3, with “Briefly, different concentrations of CES (4 U/mL, 2 U/mL, 1 U/mL, 0.5 U/mL, 0.25 U/mL, 0.125 U/mL, 0.0625 U/mL, 0.03125 U/mL, 0.015625 U/mL and 0 U/mL) and different amount of E. coli lysates were prepared in PBS buffer. Followed by, 25 μM of CFDA was added in and incubated at room temperature for 1 hour.” left out, “CES and E. coli lysate (0.1 U/mL) were added and incubated with above solutions at 37° C. for 24 hours.” left out

Turning to `NCCCCC(NC(=O)C(CCCCN)NC(=O)CCC(=O)OCC(NC(=O)C(Cl)Cl)C(O)c1ccc([N+](=O)[O-])cc1)C(=O)O` (stereo not shown) [Compound 2c], the “reduction of antibacterial activity by deletion of the cytoplasmic esterase” value (“reduction of antibacterial activity” for short) in data set [1] is recorded as “about 20%”. Further, in data set [2], the “Compounds remaining (%) 0 h” value was found to be 100%, the “Compounds remaining (%) 2 h” value is given as 49.2% and the “Compounds remaining (%) 24 h” value is reported as 0%. The “effect of deletion of ydgR, fepA, or ompF on treated bacteria” value (shortened to “effect of deletion of ydgR, fepA”) in data set [3] is recorded as “hardly rescues the bacteria”. In addition, the “reduction of the viabilities of the acrA deletion mutant treated by the conjugates” value (from here on “reduction of the viabilities … by the conjugates”) in data set [4] is 50%. For the same compound, the “Effect of addition of exogenous PLE on inhibitory efficacy” value (from here on “Effect … on inhibitory efficacy”) in data set [5] is given as “hardly changes”. Moreover, in data set [5] (wild type E. coli (K-12)), the “MIC (μM)” value was 200 µM (≈ 136 µg/mL). Moreover, the “apparent first-order rate constant of hydrolysis” value with E. coli (K-12) lysate is 0.310 h⁻¹.
On to `NCCCCC(NC(=O)C(CCCCN)NC(=O)CCC(=O)OCC(NC(=O)C(Cl)Cl)C(O)c1ccc([N+](=O)[O-])cc1)C(=O)O` (stereo not shown) [Compound 2b], for which, in data set [1], the “reduction of antibacterial activity” value is reported as “about 20%”. In addition, in data set [2], the “Compounds remaining (%) 0 h” value was 100%, the “Compounds remaining (%) 2 h” value is given as 52.9% and the “Compounds remaining (%) 24 h” value is 0%. In addition, in data set [3], the “effect of deletion of ydgR, fepA” value is on record as “hardly rescues the bacteria”. Besides, the “reduction of the viabilities … by the conjugates” value in data set [4] turned out to be 20%. Moreover, the “Effect … on inhibitory efficacy” value in data set [5] was “hardly changes”. Also, the “MIC (μM)” value in data set [5] (wild type E. coli (K-12)) was 200 µM (≈ 136 µg/mL). In addition, the “apparent first-order rate constant of hydrolysis” value in the data set with E. coli (K-12) lysate came to 0.317 h⁻¹.
With `O=C(O)CNC(=O)C(CO)NC(=O)CCC(=O)OCC(NC(=O)C(Cl)Cl)C(O)c1ccc([N+](=O)[O-])cc1` (stereo not shown) [Compound 1d], the “reduction of antibacterial activity” value in data set [1] was roughly 10%. Also, in data set [2], the “Compounds remaining (%) 0 h” value is recorded as 100%, the “Compounds remaining (%) 2 h” value was determined as 16.7% and the “Compounds remaining (%) 24 h” value is reported as 0%. The “effect of deletion of ydgR, fepA” value in data set [3] is “hardly rescues the bacteria”. Moreover, the “reduction of the viabilities … by the conjugates” value in data set [4] came to 40%. Further, the “Effect … on inhibitory efficacy” value in data set [5] is “hardly changes”. For the same compound, in data set [5] (wild type E. coli (K-12)), the “MIC (μM)” value stood at 40 µM (≈ 22.7 µg/mL). The “apparent first-order rate constant of hydrolysis” value with E. coli (K-12) lysate was 1.267 h⁻¹.
As for `O=C(CCC(=O)OCC(NC(=O)C(Cl)Cl)C(O)c1ccc([N+](=O)[O-])cc1)NCC(=O)NC(CO)C(=O)O` (stereo not shown) [Compound 1c], the “reduction of antibacterial activity” value in data set [1] is listed as “about 20%”. For the same compound, in data set [2], the “Compounds remaining (%) 0 h” value came to 100%, the “Compounds remaining (%) 2 h” value was determined as 0% and the “Compounds remaining (%) 24 h” value came out at 0%. For the same compound, the “effect of deletion of ydgR, fepA” value in data set [3] is recorded as “hardly rescues the bacteria”. The “reduction of the viabilities … by the conjugates” value in data set [4] came to 30%. The “Effect … on inhibitory efficacy” value in data set [5] is “hardly changes”. Also, in data set [5] (wild type E. coli (K-12)), the “MIC (μM)” value was 20 µM (≈ 11.3 µg/mL). The “apparent first-order rate constant of hydrolysis” value with E. coli (K-12) lysate turned out to be 3.763 h⁻¹.
`O=C(O)CCC(=O)OC[C@@H](NC(=O)C(Cl)Cl)[C@H](O)c1ccc([N+](=O)[O-])cc1` [CLsu, chloramphenicol succinate, reference compound]: in data set [2] (after 24 hours), the “conversion in human serum” value is listed as “less than 15%”. Moreover, in data set [2], the “Compounds remaining (%) 0 h” value worked out at 100%, the “Compounds remaining (%) 2 h” value worked out at 96.2% and the “Compounds remaining (%) 24 h” value worked out at 87.0%. Also, the MIC in data set [5] (read-out: MIC value before addition of exogenous CES) was determined as 90 µM. Also, the MIC in data set [5] (FIG. 3B, with exogenous carboxylesterase (CES), read-out: MIC value after addition of exogenous CES) was 49 µM. The MIC in data set [5] (wild type E. coli (K-12), read-out: MIC) is greater than 200 µM. In addition, the MIC in data set [5] (wild type E. coli (K-12), read-out: MIC (μg/mL)) is greater than 84.6 µg/mL. In data set [5] (wild type E. coli (K-12)), the “MIC (μM)” value is greater than 200 µM and the “MIC (μg/mL)” value was greater than 84.6 µg/mL. Also, the “cytotoxicity / cell viability of HS-5 cells” value with HS-5 cells is on record as “largely innocuous; also recorded: lower cytotoxicity than CL”. The “hydrolysis with addition of CES” value in the data set on carboxylesterase (CES) is given as “hardly undergoes hydrolysis”. In addition, the fraction hydrolyzed entry with E. coli (K-12) lysate (24 hours after addition of E. coli lysate) is “less than 20%”.
